{"source": "paper PMC4071299", "about": "(Toxicology Reports, 2014)", "key": {"MCF-7 cells": {"tested_on": "MCF-7 cells", "conditions": "cited from earlier work"}, "rats [1]": {"tested_on": "rats", "conditions": "single dose by gavage to rats; cited from earlier work"}, "[2]": {"conditions": "20 mg/kg, male F-344 rats; cited from earlier work"}, "human transthyretin": {"tested_on": "human transthyretin", "conditions": "cited from earlier work"}, "[3]": {"assay": "Plasma toxicokinetics of free TBBPA after oral or IV administration", "format": "in vivo, female Crl:WI(Han) rats", "conditions": "for AUC: free TBBPA in plasma; for half-life: iv, 25 mg/kg"}, "[4]": {"assay": "Biliary elimination in bile-duct cannulated rats after oral dose", "format": "in vivo, female Crl:WI(Han) rats", "conditions": "oral […] mg/kg, 6 h"}, "[5]": {"conditions": "male SD rats, cited from earlier work; for Cmax: read-out: plasma Cmax"}, "[6]": {"tested_on": "rat thyroid hormone receptor", "conditions": "cited from earlier work"}, "rats [7]": {"tested_on": "rats", "conditions": "cited from earlier work"}, "[8]": {"tested_on": "progesterone receptor (PR)", "conditions": "transfected yeast; cited from earlier work"}, "MtT/E-2 cells": {"tested_on": "MtT/E-2 cells", "conditions": "lower extent than bisphenol A; cited from earlier work"}, "[9]": {"tested_on": "estrogen sulfotransferase SULT1E1", "conditions": "crystallographic studies; cited from earlier work"}, "[10]": {"assay": "Disposition of [14C]-radioactivity after IV administration of TBBPA", "format": "in vivo, female Crl:WI(Han) rats", "conditions": "IV 25 mg/kg"}, "[11]": {"assay": "Disposition and elimination of [14C]-radioactivity after single oral", "format": "in vivo, female Crl:WI(Han) rats"}, "TTR": {"tested_on": "TTR", "conditions": "cited from earlier work"}, "estradiol sulfation": {"tested_on": "estradiol sulfation", "conditions": "in vitro; cited from earlier work"}, "[12]": {"assay": "Elimination and distribution after repeated oral administration", "format": "in vivo, female Crl:WI(Han) rats", "conditions": "[…] mg/kg for 5 days"}}, "note": "Where two headings read alike, the source gives them in different places.", "data": [{"smiles": "CC(C)(O)c1cc(Br)c(O)c(Br)c1", "note": "[2,6-dibromo-4-[2-hydroxypropane-2-yl]-phenol]", "values": [{"measurement": "estrogenic activity", "setting": "MCF-7 cells", "value": "estrogenic activity"}]}, {"smiles": "COC(C)(C)c1cc(Br)c(O)c(Br)c1", "note": "[2,6-dibromo-4-[2-methoxypropane-2-yl]-phenol]", "values": [{"measurement": "estrogenic activity", "setting": "MCF-7 cells", "value": "estrogenic activity"}]}, {"smiles": "CC(C)(c1cc(Br)c(O)c(Br)c1)c1cc(Br)c(O)c(Br)c1", "note": "[TBBPA, 2,2′,6,6′-Tetrabromo-4,4′-isopropylidene diphenol]", "values": [{"measurement": "LD50", "setting": "rats [1]", "value": "greater than 5 g/kg"}, {"measurement": "systemic bioavailability", "setting": "[2]", "value": 1.6, "unit": "%"}, {"measurement": "binding to transthyretin", "setting": "human transthyretin", "value": "bind"}, {"measurement": "administered radioactivity remaining in plasma", "setting": "[3]; IV 25 mg/kg, 6 h post dose", "value": "~2", "unit": "%"}, {"measurement": "AUC", "setting": "[3]; IV (25 mg/kg)", "value": 4286, "unit": "nmol·min/mL"}, {"measurement": "AUC", "setting": "[3]; Oral ([…] mg/kg)", "value": 1729, "unit": "nmol·min/mL"}, {"measurement": "half-life", "setting": "[3]; female, Crl:WI(Han), rat, plasma, distribution half-life, IV 25 mg/kg, two-compartment model", "value": 2, "unit": "min"}, {"measurement": "half-life", "setting": "[3]; female, Crl:WI(Han), rat, plasma, terminal half-life, IV 25 mg/kg, non-compartmental analyses", "value": 133, "unit": "min"}, {"measurement": "half-life", "setting": "[3]; female, Crl:WI(Han), rat, plasma, terminal half-life, IV 25 mg/kg, two-compartment model", "value": 22, "unit": "min"}, {"measurement": "Cmax", "setting": "[3]; female, Crl:WI(Han), rat, plasma, po, 250 mg/kg", "value": 5.4, "unit": "µM"}, {"measurement": "[14C]-radioactivity, bile", "setting": "[4]", "value": "6 ± 7", "unit": "% dose"}, {"measurement": "Tmax", "setting": "[5]; oral 200, 500 and 1000 mg/kg", "value": "252 to 300", "unit": "min"}, {"measurement": "Cmax", "setting": "[5]; 300 mg/kg", "value": 103, "unit": "µM"}, {"measurement": "Cmax", "setting": "[5]; oral 200 mg/kg", "value": 23, "unit": "µM"}, {"measurement": "Cmax", "setting": "[5]; oral 500 mg/kg", "value": 34, "unit": "µM"}, {"measurement": "Cmax", "setting": "[5]; oral 1000 mg/kg", "value": 57, "unit": "µM"}, {"measurement": "binding to thyroid hormone receptor", "setting": "[6]", "value": "high affinity"}, {"measurement": "toxicity after intraperitoneal administration", "setting": "rats [7]", "value": "hepatotoxicity and heme metabolism disturbances"}, {"measurement": "PR activity", "setting": "[8]", "value": "antagonist"}, {"measurement": "cell proliferation", "setting": "MtT/E-2 cells", "value": "enhanced proliferation"}, {"measurement": "binding to SULT1E1", "setting": "[9]", "value": "high affinity"}, {"measurement": "administered radioactivity eliminated in feces within 6 h", "setting": "[10]", "value": "Approx. 10%"}, {"measurement": "administered radioactivity eliminated in urine within 6 h", "setting": "[10]", "value": "~1", "unit": "%"}, {"measurement": "dose recovered in contents of large intestine", "setting": "[10]; 6 h post dose", "value": "~61", "unit": "%"}, {"measurement": "dose recovered in contents of small intestine", "setting": "[10]; 6 h post dose", "value": "approx. 15%"}, {"measurement": "[14C]-radioactivity, all other tissues", "setting": "[10]; 6 h post-dose", "value": "less than 1 % of the administered dose"}, {"measurement": "[14C]-radioactivity, adipose", "setting": "[10]; 6 h post-dosing", "value": "1 ± 0.8", "unit": "%"}, {"measurement": "[14C]-radioactivity, large intestine", "setting": "[10]; 6 h post-dosing", "value": "3.2 ± 3", "unit": "%"}, {"measurement": "[14C]-radioactivity, liver", "setting": "[10]; 6 h post-dosing", "value": "1.8 ± 0.6", "unit": "%"}, {"measurement": "[14C]-radioactivity, small intestine", "setting": "[10]; 6 h post-dosing", "value": "3.2 ± 3.1", "unit": "%"}, {"measurement": "dose recovery in feces in 72 h", "setting": "[11]; oral 25 mg/kg", "value": "95.7 ± 3.5", "unit": "%"}, {"measurement": "dose recovery in feces in 72 h", "setting": "[11]; oral 1000 mg/kg", "value": "98.8 ± 2.2", "unit": "%"}, {"measurement": "dose recovered in urine", "setting": "[11]; oral 25, 250 or 1000 mg/kg, 72 h", "value": "0.2–2 % of dose"}, {"measurement": "dose recovery in feces in 72 h", "setting": "[11]; oral […] mg/kg", "value": "94.3 ± 3.6", "unit": "%"}, {"measurement": "radioactivity in tissues at 24 h", "setting": "[11]; oral […] mg/kg", "value": "< 2", "unit": "%"}, {"measurement": "[14C]-radioactivity, blood", "setting": "[11]; oral […] mg/kg, 1 h", "value": "0.6 ± 0.2", "unit": "% dose"}, {"measurement": "[14C]-radioactivity, blood", "setting": "[11]; oral […] mg/kg, 3 h", "value": "0.4 ± 0.2", "unit": "% dose"}, {"measurement": "[14C]-radioactivity, feces", "setting": "[11]; oral […] mg/kg, 6 h", "value": "0.1 ± 0.1", "unit": "% dose"}, {"measurement": "[14C]-radioactivity, urine", "setting": "[11]; oral […] mg/kg, 6 h", "value": "1.2 ± 0.7", "unit": "% dose"}, {"measurement": "[14C]-radioactivity, blood", "setting": "[11]; oral […] mg/kg, 24 h", "value": "0.06 ± 0.05", "unit": "% dose"}, {"measurement": "[14C]-radioactivity, feces", "setting": "[11]; oral […] mg/kg, 24 h", "value": "82 ± 18", "unit": "% dose"}, {"measurement": "[14C]-radioactivity, large intestine", "setting": "[11]; oral […] mg/kg, 24 h", "value": "0.3 ± 0.1", "unit": "% dose"}, {"measurement": "[14C]-radioactivity, urine", "setting": "[11]; oral […] mg/kg, 24 h", "value": "0.3 ± 0.1", "unit": "% dose"}, {"measurement": "administered [14C]-radioactivity detected in tissues", "setting": "[11]; tissues collected at 72 h following oral doses", "value": "< 0.1", "unit": "%"}, {"measurement": "estrogenic activity", "setting": "MCF-7 cells", "value": "estrogenic activity"}, {"measurement": "TTR binding", "setting": "TTR", "value": "T4 competitor"}, {"measurement": "effect on estradiol sulfation", "setting": "estradiol sulfation", "value": "inhibitor"}, {"measurement": "terminal dose recovered from feces", "setting": "[12]; 24 h after final ([14C]) dose", "value": "84 ± 8", "unit": "%"}, {"measurement": "dose recovered in urine", "setting": "[12]; 24 h after final dose", "value": "Less than 1%"}, {"measurement": "tissue retention", "setting": "[12]; 24 h after final dose", "value": "minimal"}]}]}
